# Laboratory results taken from patent publication US20110172147A1, “NEUROPEPTIDE-2 RECEPTOR (Y-2R) AGONISTS” (priority 2009, published 2011).
# Key:
# Assay type in all cases: cell-based
# Y1R = molecular target: T1, Y1R (Homo sapiens, UniProt P25929); test: CaFlux Assay (FLIPR), Y1R
# T1 sequence (P25929 1-384): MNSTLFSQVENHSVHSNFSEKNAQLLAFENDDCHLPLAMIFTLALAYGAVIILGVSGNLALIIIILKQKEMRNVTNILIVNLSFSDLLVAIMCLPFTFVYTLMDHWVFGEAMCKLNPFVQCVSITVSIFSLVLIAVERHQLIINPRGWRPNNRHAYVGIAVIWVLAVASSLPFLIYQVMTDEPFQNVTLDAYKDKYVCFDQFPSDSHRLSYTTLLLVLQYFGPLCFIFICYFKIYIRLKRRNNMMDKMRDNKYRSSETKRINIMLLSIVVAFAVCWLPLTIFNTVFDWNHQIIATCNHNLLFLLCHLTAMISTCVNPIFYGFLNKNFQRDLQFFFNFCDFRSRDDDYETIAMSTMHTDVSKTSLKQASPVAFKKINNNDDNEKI
# hNPY2R [1] = molecular target: T2, hNPY2R (Homo sapiens, UniProt P49146); test: cAMP Agonist Assay, HEK293/hNPY2R; set-up: expressed in transfected cells; host or cells: HEK293/hNPY2R (G418 selection)
# T2 sequence (P49146 1-381): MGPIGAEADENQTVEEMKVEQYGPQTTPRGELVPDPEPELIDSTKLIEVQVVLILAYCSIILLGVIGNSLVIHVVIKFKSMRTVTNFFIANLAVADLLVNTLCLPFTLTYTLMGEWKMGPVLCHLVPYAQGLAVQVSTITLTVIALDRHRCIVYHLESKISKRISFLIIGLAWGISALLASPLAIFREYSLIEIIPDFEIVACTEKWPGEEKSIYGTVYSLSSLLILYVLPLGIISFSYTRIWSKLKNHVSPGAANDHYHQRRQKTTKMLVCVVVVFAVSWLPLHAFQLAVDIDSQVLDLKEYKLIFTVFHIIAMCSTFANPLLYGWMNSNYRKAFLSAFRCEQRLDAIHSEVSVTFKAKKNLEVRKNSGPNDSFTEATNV
# Description: In this example, the following materials were used: 384-well plate; Tropix cAMP-Screen Kit; cAMP ELISA System (Applied Biosystems, cat. #T1505; CS 20000); Forskolin (Calbiochem cat. # 344270); cells: HEK293/hNPY2R; growth medium: Dulbecco's modified eagle medium (D-MEM, Gibco); 10% Fetal bovine serum (FBS, Gibco), heat-inactivated; 1% Penicillin/Streptomycin (Pen 10000 unit/mL: Strep […], Gibco); […] G418 (Geneticin, Gibco cat. # 11811-031); and plating medium: DMEM/F12 w/o phenol red (Gibco); 10% FBS (Gibco, cat. # 10082-147), heat-inactivated; 1% Penicillin/Streptomycin (Gibco, cat. # 15140-122); […] G418 (Geneticin, Gibco, cat. # 11811-031).
# On the first day, medium was discarded, and the monolayer cells were washed with 10 mL PBS per flask (T225). After decanting with PBS, 5 mL VERSENE (Gibco, cat #1504006) was used to dislodge the cells (5 min @37 C). The flask was gently tapped and the cell suspension was pooled. Each flask was rinsed with 10 mL plating medium and centrifuged at 1000 rpm for 5 min. The suspension was pooled and counted. The suspension was resuspended in plating medium at a density of 2.0×10^5 cells/mL for HEK293/hNPY2R. 50 microliters of cells (HEK293/hNPY2R-10,000 cells/well) were transferred into the 384-well plate using Multi-drop dispenser. The plates were incubated at 37° C. overnight. On the second day, the cells were checked for 75-85% confluence. The media and reagents were allowed to come to room temperature. Before the dilutions were prepared, the stock solution of stimulating compound in dimethyl sulphoxide (DMSO, Sigma, cat #D2650) was allowed to warm up to 32 C for 5-10 min. The dilutions were prepared in DMEM/F12 with 0.5 mM 3-Isobutyl-1-methylxanthine (IBMX, Calbiochem, cat #410957) and 0.5 mg/mL BSA. The final DMSO concentration in the stimulation medium was 1.1% with Forskolin concentration of 5 μM. The cell medium was tapped off with a gentle inversion of the cell plate on a paper towel. 50 μL of stimulation medium was placed per well (each concentration done in four replicates). The plates were incubated at room temperature for 30 min, and the cells were checked under a microscope for toxicity. After 30 minutes of treatment, the stimulation media was discarded and […] of Assay Lysis Buffer (provided in the Tropix kit) was added. The plates were incubated for 45 min @ 37° C. 20 μL of the lysate was transferred from stimulation plates into the pre-coated antibody plates (384-well) from the Tropix kit. 10 μL of AP conjugate and 20 μL of anti-cAMP antibody was added. The plates were incubated at room temperature while shaking for 1 hour. The plates were then washed 5 times with Wash Buffer, 70 μL per well for each wash. The plates were tapped to dry. 30 μL/well of CSPD/Saphire-II RTU substrate/enhancer solution was added and incubated for 45 min @ RT (shake). Signal for 1 sec/well in a Luminometer. (VICTOR-V) was measured.
# hNPY2R [2] = molecular target: T2, hNPY2R; test: CaFlux Assay (FLIPR), Y2R; set-up: expressed in transfected cells; host or cells: HEK-293 stably transfected with G protein chimera Gαqi9
# Description: HEK-293 cells were stably transfected with the G protein chimera Gαqi9 and the hygromycin-B resistance gene were further transfected with the human NPY2 receptor and G418 antibiotic selection. Following selection in both hygromycin-B and G418, individual clones were assayed for their response to PYY. The transfected cells were cultured in DMEM medium supplemented with 10% fetal bovine serum, 50 μg/mL hygromycin-B, 2 mM glutamine, 100 U/mL penicillin, 100 μg/mL streptomycin and 250 μg/mL G418. Cells are harvested with trypsin-EDTA and counted using ViaCount reagent. The cell suspension volume is adjusted to 4.8×10^5 cells/mL with complete growth media. Aliquots of 25 μL are dispensed into 384 well Poly-D Lysine coated black/clear microplates (Falcon) and the microplates were placed in a 37° C. CO2 incubator overnight. Loading Buffer (Calcium-3 Assay Kit, Molecular Devices) was prepared by dissolving the contents of one vial (Express Kit) into […] Hank's Balanced Salt Solution containing 20 mM HEPES and 5 mM probenecid. Aliquots of 25 μL of diluted dye were dispensed into the cell plates and the plates are then incubated for 1 hour at 37° C. During the incubation, test compounds were prepared at 3.5× the desired concentration in HBSS (20 mM HEPES)/0.05% BSA/1% DMSO and transferred to a 384-well plate for use on FLIPR. After incubation, both the cell and compound plates were brought to the FLIPR and 20 μL of the diluted compounds were transferred to the cell plates by the FLIPR. During the assay, fluorescence readings were taken simultaneously from all 384 wells of the cell plate every 1.5 seconds. Five readings were taken to establish a stable baseline, and then 20 μL of sample was rapidly (30 μL/sec) and simultaneously added to each well of the cell plate. The fluorescence was continuously monitored before, during and after sample addition for a total elapsed time of 100 seconds. Responses (increase in peak fluorescence) in each well following addition were determined. The initial fluorescence reading from each well, prior to ligand stimulation, was used as a zero baseline value for the data from that well. The responses are expressed as % of maximal response of the positive control.
# Y5R = molecular target: T3, Y5R (Homo sapiens, UniProt Q15761); test: CaFlux Assay (FLIPR), Y5R
# T3 sequence (Q15761 1-445): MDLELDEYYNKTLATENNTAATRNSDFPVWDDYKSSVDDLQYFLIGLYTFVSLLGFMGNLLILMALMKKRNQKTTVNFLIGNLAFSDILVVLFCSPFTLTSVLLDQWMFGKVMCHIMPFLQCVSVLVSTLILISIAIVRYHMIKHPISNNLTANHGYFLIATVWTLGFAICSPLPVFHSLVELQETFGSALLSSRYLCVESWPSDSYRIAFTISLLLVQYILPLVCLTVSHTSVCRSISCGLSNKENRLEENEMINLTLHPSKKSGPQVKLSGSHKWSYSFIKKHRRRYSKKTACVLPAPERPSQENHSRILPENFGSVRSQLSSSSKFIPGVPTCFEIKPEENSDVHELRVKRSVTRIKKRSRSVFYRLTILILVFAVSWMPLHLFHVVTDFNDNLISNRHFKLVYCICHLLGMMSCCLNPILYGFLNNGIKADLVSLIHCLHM
# Y4R = Y4R (Homo sapiens, UniProt P50391); test: CaFlux Assay (FLIPR), Y4R
# Chain of Y4R (P50391 whole entry): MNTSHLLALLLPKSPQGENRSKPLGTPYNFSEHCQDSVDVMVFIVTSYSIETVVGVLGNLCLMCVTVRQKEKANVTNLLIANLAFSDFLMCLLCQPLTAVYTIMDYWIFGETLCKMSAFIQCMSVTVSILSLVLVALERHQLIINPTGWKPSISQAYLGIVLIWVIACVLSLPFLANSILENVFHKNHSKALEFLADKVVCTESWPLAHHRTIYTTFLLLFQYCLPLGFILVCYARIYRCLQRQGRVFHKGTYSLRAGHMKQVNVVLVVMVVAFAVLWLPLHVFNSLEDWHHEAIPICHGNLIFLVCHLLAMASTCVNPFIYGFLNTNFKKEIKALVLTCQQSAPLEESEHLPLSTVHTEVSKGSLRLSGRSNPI
SMILES,EC50 (Y1R) [nM],EC50 (hNPY2R [1]) [nM],EC50 (hNPY2R [2]) [nM],EC50 (Y5R) [nM],EC50 (Y4R) [nM]
CCCCCCCCCCCCCCCC(=O)NCCCCCC(=O)NCCOCCOCCOCCOCCOCCOCCOCCOCCOCCOCCOCCOCCOCCOCCOCCOCCOCCOCCOCCOCCOCCOCCOCCOCCC(=O)N[C@H](C(=O)N[C@@H](CCCCN)C(=O)N1CCN(c2ccc3ncn(CC(=O)N[C@@H](CCCNC(=N)N)C(=O)N[C@@H](Cc4c[nH]cn4)C(=O)N[C@@H](Cc4ccc(O)cc4)C(=O)N[C@@H](CC(C)C)C(=O)N[C@@H](CC(N)=O)C(=O)N[C@@H](Cc4c[nH]c5ccccc45)C(=O)N[C@H](C(=O)N[C@H](C(=O)N[C@@H](CCCNC(=N)N)C(=O)N[C@@H](CCC(N)=O)C(=O)N(C)[C@@H](CCCNC(=N)N)C(=O)N[C@@H](Cc4ccc(O)cc4)C(N)=O)[C@@H](C)O)C(C)C)c(=O)c3c2)CC1)[C@@H](C)CC [Example 38],> 6000,0.07,0.1,1380,> 6000
CCCCCCCCCCCCCCCCCCCC(=O)N[C@@H](CCC(=O)O)C(=O)N[C@@H](CCC(=O)O)C(=O)N[C@H](C(=O)N[C@@H](CCCCNC(=O)CCOCCOCCOCCOCCOCCOCCOCCOCCOCCOCCOCCOCCOCCOCCOCCOC)C(=O)N1CCN(c2ccc3ncn(CC(=O)N[C@@H](CCCNC(N)=O)C(=O)N[C@@H](Cc4c[nH]cn4)C(=O)N[C@@H](Cc4ccc(O)cc4)C(=O)N[C@@H](CC(C)C)C(=O)N[C@@H](CC(N)=O)C(=O)N[C@@H](Cc4c[nH]c5ccccc45)C(=O)N[C@H](C(=O)N[C@H](C(=O)N[C@@H](CCCNC(=N)N)C(=O)N[C@@H](CCC(N)=O)C(=O)N(C)[C@@H](CCCNC(=N)N)C(=O)N[C@@H](Cc4ccc(O)cc4)C(N)=O)[C@@H](C)O)C(C)C)c(=O)c3c2)CC1)[C@@H](C)CC [Example 47],> 6000,0.23,0.158,> 6000,> 6000
CCCCCCCCCCCCCCCCCCCC(=O)N[C@@H](CCC(=O)O)C(=O)N[C@@H](CCC(=O)O)C(=O)N[C@H](C(=O)N[C@@H](CCCCNC(=O)CCOCCOCCOCCOCCOCCOCCOCCOC)C(=O)N1CCN(c2ccc3ncn(CC(=O)N[C@@H](CCCNC(N)=O)C(=O)N[C@@H](Cc4c[nH]cn4)C(=O)N[C@@H](Cc4ccc(O)cc4)C(=O)N[C@@H](CC(C)C)C(=O)N[C@@H](CC(N)=O)C(=O)N[C@@H](Cc4c[nH]c5ccccc45)C(=O)N[C@H](C(=O)N[C@H](C(=O)N[C@@H](CCCNC(=N)N)C(=O)N[C@@H](CCC(N)=O)C(=O)N(C)[C@@H](CCCNC(=N)N)C(=O)N[C@@H](Cc4ccc(O)cc4)C(N)=O)[C@@H](C)O)C(C)C)c(=O)c3c2)CC1)[C@@H](C)CC [Example 44],> 6000,0.43,0.313,> 6000,> 6000
CCCCCCCCCCCCCC(=O)NCCCCCC(=O)N[C@H](C(=O)N[C@@H](CCCCNC(=O)CCOCCOCCOCCOCCOCCOCCOCCOCCOCCOCCOCCOCCOCCOCCOCCOCCOCCOCCOCCOCCOCCOCCOCCOC)C(=O)N1CCN(c2ccc3ncn(CC(=O)N[C@@H](CCCNC(N)=O)C(=O)N[C@@H](Cc4c[nH]cn4)C(=O)N[C@@H](Cc4ccc(O)cc4)C(=O)N[C@@H](CC(C)C)C(=O)N[C@@H](CC(N)=O)C(=O)N[C@@H](Cc4c[nH]c5ccccc45)C(=O)N[C@H](C(=O)N[C@H](C(=O)N[C@@H](CCCNC(=N)N)C(=O)N[C@@H](CCC(N)=O)C(=O)N(C)[C@@H](CCCNC(=N)N)C(=O)N[C@@H](Cc4ccc(O)cc4)C(N)=O)[C@@H](C)O)C(C)C)c(=O)c3c2)CC1)[C@@H](C)CC [Example 37],> 6000,2.8,0.158,4260,> 6000
CCCCCCCCCCCCCCCCCCCC(=O)NCCCCCC(=O)N[C@H](C(=O)N[C@@H](CCCCNC(=O)CCOCCOCCOCCOCCOCCOCCOCCOCCOCCOCCOCCOCCOCCOCCOCCOCCOCCOCCOCCOCCOCCOCCOCCOC)C(=O)N1CCN(c2ccc3ncn(CC(=O)N[C@@H](CCCNC(N)=O)C(=O)N[C@@H](Cc4c[nH]cn4)C(=O)N[C@@H](Cc4ccc(O)cc4)C(=O)N[C@@H](CC(C)C)C(=O)N[C@@H](CC(N)=O)C(=O)N[C@@H](Cc4c[nH]c5ccccc45)C(=O)N[C@H](C(=O)N[C@H](C(=O)N[C@@H](CCCNC(=N)N)C(=O)N[C@@H](CCC(N)=O)C(=O)N(C)[C@@H](CCCNC(=N)N)C(=O)N[C@@H](Cc4ccc(O)cc4)C(N)=O)[C@@H](C)O)C(C)C)c(=O)c3c2)CC1)[C@@H](C)CC [Example 33],> 6000,0.13,0.127,4290,> 6000
